Measured values: patent US20060019958A1, “Immunity-related protein kinase inhibitors” (priority 2002, published 2006)

Tests used:
[1] = system: NF-κB activation by forced expression of MEKK-1 in HeLa cells; experiment: Inhibition of NF-κB activation by forced expression of MEKK-1 (luciferase reporter assay); format: cell-based, human; details: MEKK-1 forced expression, 24 hours
Text: Measurement of Inhibition of NF-κB Activation by Forced Expression of MEKK-1
Using a transfection reagent(Effectene; QIAGEN), human uterine cancer cell strain HeLa was cotransfected with a plasumid (pNF κB-Luc Reporter Plasmid: STRATAGENE) integrated with an oligonucleotide having five tandem copies of NF-κB binding sequences(TGGGGACTTTCCGC) on an upstream region of the firefly luciferase gene(Luc) and the MEKK-1 gene-contained expression vector(pFC-MEKK: STRATAGENE) according to the QIAGEN's protocol, and the cells were incubated for 24 hours. After incubation in the presence or absence of a test compound for 24 hours, intracellular luciferase activity was measured by using PicaGene LT(TOYO INK MFG Co., Ltd.) and a chemical luminescence measurement apparatus(SPECTRAFluor Plus; TECAN). The inhibitory ratio was measured as a ratio relative to the value of the luciferase activity in the absence of the test compound.

[2] = system: IκBα phosphorylation in HepG2 cells; experiment: Detection of phosphorylated IκBα by Western blot method under TNFα stimulation; format: cell-based; details: 40 ng/ml human TNFα, 20 μM MG-132
Experimental: Detection of Phosphorylated IκBα by Western Blot Method
[…] After 45 minutes, 40 ng/ml of human TNFα was further added. Ten minutes after the addition of the TNFα, the cells were collected, and a cell lysate was prepared by using a tip-type ultrasonic processor (Dr.Hielsher; UP-50H). After the measurement of a protein concentration using a BCA protein assay kit by Pierce (BSA standard), 30 μg of the cell lysate was applied to each lane of 12% SDS slab gel (mini gel) and an electrophoresis was carried out. After the electrophoresis, a detection of phorphorylated IκBα by Western blot method was carried out using anti-phosphorylated IκBα (Ser32) antibody (Cell Signaling) as a primary antibody and […] as a secondary antibody.

| Structure (SMILES) | Inhibition Ratio of I κ B phosphorylation(%) ([2]; Drug Concentration 2 μg/ml) | other results |
| --- | --- | --- |
| O=C(Nc1cc(C(F)(F)F)cc(C(F)(F)F)c1)c1cc(Cl)ccc1O [Compound No. 50, N-[3,5-Bis(trifluoromethyl)phenyl]-5-chloro-2-hydroxybenzamide] | 43.0 | Inhibitory Ratio of NF-κB Activation(%) ([1]; Drug Concentration 1 μg/ml): 92.6%; Inhibitory Ratio of NF-κB Activation(%) ([1]; Drug Concentration 10 μg/ml): 93.2% |
| CC(C)(C)c1ccc(O)c(C(=O)Nc2cc(C(F)(F)F)cc(C(F)(F)F)c2)c1 [Compound No. 56, N-[3,5-Bis(trifluoromethyl)phenyl]-5-[(1,1-dimethyl)ethyl]-2-hydroxybenzamide] | 31.3 | – |
| O=C(Nc1cc(C(F)(F)F)cc(C(F)(F)F)c1)c1cc(-c2ccccc2)ccc1O [Compound No. 67] | 43.8 | – |
| O=C(Nc1cc(C(F)(F)F)cc(C(F)(F)F)c1)c1cc(-n2cccc2)ccc1O [Compound No. 71] | 29.5 | – |
| CC(=O)Oc1ccccc1C(=O)Nc1cc(Cl)cc(Cl)c1 [compound 172, 2-acetoxy-N-(3,5-dichlorophenyl)benzamide] | – | melting point: 218 to 219 °C |
| CC(C)(C)C(=O)c1sc(NC(=O)c2cc(Cl)ccc2O)nc1C(C)(C)C [compound 195, 5-Chloro-N-{4-[(1,1-dimethyl)ethyl]-5-[(2,2-dimethyl)propionyl]thiazol-2-yl}-2-hydroxybenzamide] | 63.5 | – |
| CC(C)(C)c1nc(NC(=O)c2cc(Br)ccc2O)sc1N1CCOCC1 [compound 199, 5-Bromo-N-{4-[(1,1-dimethyl)ethyl]-5-morpholinothiazol-2-yl}-2-hydroxybenzamide] | 47.9 | – |
| CC(C)(C)c1nc(NC(=O)c2cc(Br)ccc2O)sc1N1CCN(c2ccccc2)CC1 [compound 201, 5-Bromo-N-{4-[(1,1-dimethyl)ethyl]-5-(4-phenylpiperazin-1-yl)thiazol-2-yl}-2-hydroxybenzamide] | 57.4 | – |
| COc1cc(/C=C/C(=O)CC(=O)/C=C/c2ccc(O)c(OC)c2)ccc1O [curcumin] | – | Inhibition Ratio of I κ B phosphorylation(%) ([2]; Drug Concentration 100 μM): 51.6% |
